One compound from patent publication US12178210B2, “Insect attractant and killing system” (priority 2020, dated 2024) can be followed below.

Molecules are shown by their SMILES. Read-outs that look alike come from different tables or passages of the source.

The conditions of this series: field, Córdoba, initial amount 15 g, UV8, 1.6 mm orifice. As to the method:
The devices consisted of a pesticide coated insecticide transfer envelope (˜10 mg of deltamethrin) equipped with a hook containing an attractant lure on the inside of the envelope (see FIG. 3). Attractant lures inside Magnet™ ORO were labelled and individually weighed at different periods of time. Qualitative identity of the remaining material was assessed by means of FTIR and compared with standards. Each lure was constructed using polypropylene/calcium carbonate film (UV8) as the membrane and Scotchpak™ (3M) polyester laminate film as the impermeable barrier material and a 1.6 mm ( 1/16 in) diameter spherical punch in the impermeable layer exposing the membrane and an ˜8 mm ( 5/16 in) diameter heat seal around the circumference of the punch (referred to as a ring seal). Each prototype contained 15 g of ammonium carbonate as the volatile insect attractant.
The trials were performed in Córdoba, Spain June-November 2019 where the average temperatures (high/low) are 32/17° C. (90/62° F.) in June, 37/19° C. (98/67° F.) in July, 35/19° C. (95/66° F.) in August, 32/18° C. (90/64° F.) in September, 24/13° C. (76/55° F.) in October, and 18/8° C. (65/47° F.) in November.

With `N.N.O=C(O)O` [Ammonium Carbonate, ammonium carbonate], the “Average Mass Loss” value (day 0 (Jul. 22, 2019)) was determined as 0.0890 g/day; the “Average Mass Loss” value (day 9 (Jul. 31, 2019)) turned out to be 0.1082 g/day; the “Average Mass Loss” value (day 21 (Aug. 12, 2019)) turned out to be 0.0948 g/day; the “Average Mass Loss” value (day 28 (Aug. 19, 2019)) is on record as 0.0976 g/day; the “Average Mass Loss” value (day 45 (Sep. 5, 2019)) is given as 0.0498 g/day; the “Average Mass Loss” value (day 57 (Sep. 17, 2019)) is 0.0111 g/day. In addition, the “Average Mass Loss” value runs as follows: (day 72 (Oct. 2, 2019)) 0.0191 g/day; (day 80 (Oct. 10, 2019)) 0.0299 g/day; (day 91 (Oct. 21, 2019)) 0.0001 g/day; (day 105 (Nov. 4, 2019)) 0.0046 g/day.
